Data on two molecules can be found in patent US12546780B2, “Method for identifying ubiquitin and ubiquitin-like enzyme activities” (CENTRE NATIONAL DE LA RECHERCHE SCIENTIFIQUE, priority 2019, dated 2026).

SMILES strings stand for the structures.

Assay [1] deals with UBC12 protein NEDDylation. Kind of assay: Bead method: NEDD8 level on UBC12 beads with HL60 cell extracts. The note with it: HL60 cells, 1 μM, 6 h. In kind it is cell-based. On the procedure: HL60 cells were first treated with 1 μM of MLN4924, DMSO, or only with the culture medium for 6 h. Beads supporting UBC12, (NEDDylation E2 enzyme, which was previously reported to be modified by NEDD8) were contacted with said cell extracts, and NEDD8 level was assessed.
Cells grown at a 5-8.10^5/mL density were spun down (300 g) at 4° C. for 5 min and washed once with PBS. After pellet resuspension in 1 mL of PBS, they were centrifuged again (16,000 g) at 4° C. for 5 min. Pellets were resuspended and incubated at 4° C. for 30 min in a hypotonic buffer (20 mM HEPES pH 7.5, 1.5 mM MgCl2, 5 mM KCl, 1 mM DTT and 1 mg/L of aprotinine, leupeptin and pepstatin) in a volume of 25 μL per 2.10^6 cells. Cell lysis was achieved through 4 freezing/thawing cycles using liquid nitrogen and DNA was sheared owing to 10 passages through a 20-1/2 G needle. Extracts were finally centrifuged twice (16000 g) at 4° C. for 20 min and supernatants were aliquoted, flash-frozen and kept at −80° C. until use. […]
(§1) SUMO-1-, SUMO-2-, NEDD8 and Ubiquitin vinyl sulfones (0.5 μM each) were added to cellular extracts (10 μL), which were incubated at 4° C. for 15 min. […] They were then resuspended in 200 μL PBS and flow-cytometry-analysed using the LSR Fortessa device from BD Biosciences. Results were analysed using the FlowJow software.

The test system of the next assay is SUMOylation activity. The note with it: read-out: in vitro IC50 (SUMOylation); cited from earlier work.
Assay [2] relates to ubiquitination activity (TMEM92, BEAN1, WBP2). Kind of assay: Bead method: ubiquitination activity on TMEM92, BEAN1 or WBP2 beads with HL60 cell extracts. The note with it: HL60 cells, 6 h. It counts as cell-based. The procedure: Cells extracts were prepared and contacted with beads coated with either TMEM92, BEAN1 or WBP2 proteins.
(§2) Cells grown at a 5-8.10^5/mL density were spun down (300 g) at 4° C. for 5 min and washed once with PBS. After pellet resuspension in 1 mL of PBS, they were centrifuged again (16,000 g) at 4° C. for 5 min. Pellets were resuspended and incubated at 4° C. for 30 min in a hypotonic buffer (20 mM HEPES pH 7.5, 1.5 mM MgCl2, 5 mM KCl, 1 mM DTT and 1 mg/L of aprotinine, leupeptin and pepstatin) in a volume of 25 μL per 2.10^6 cells. Cell lysis was achieved through 4 freezing/thawing cycles using liquid nitrogen and DNA was sheared owing to 10 passages through a 20-1/2 G needle. Extracts were finally centrifuged twice (16000 g) at 4° C. for 20 min and supernatants were aliquoted, flash-frozen and kept at −80° C. until use.
2.10^5 magnetic MagPlex XMap beads (low concentration) from Luminex were transferred to a low binding microtube (Eppendorf) and washed using 500 mM NaCl. They were then resuspended in 50 μL of 50 mM MES pH 6.1 and incubated in the presence of 5 mg/mL 1-ethyl-3-(3-dimethylaminopropyl) carbodiimide hydrochloride (EDC, Pierce) and 5 mg/mL Sulfo-NHS (Pierce) at room temperature for 20 min. Beads were then washed in PBS containing 500 mM NaCl and incubated with 7 μg of recombinant protein to be coupled in 100 μL PBS at room temperature for 2 hrs. They were then washed twice with PBS containing 0.1% BSA, 0.02% Tween 20, 0.05% sodium azide and 500 mM NaCland stored at 4° C. in PBS containing 0.1% BSA, 0.02% Tween-20, 0.05% sodium azide.
SUMO-1-, SUMO-2-, NEDD8 and Ubiquitin vinyl sulfones (0.5 μM each) were added to cellular extracts (10 μL), which were incubated at 4° C. for 15 min. Control extracts were also incubated with 50 mM NEM. […] They were then resuspended in 200 μL PBS and flow-cytometry-analysed using the LSR Fortessa device from BD Biosciences. Results were analysed using the FlowJow software.

The test system of assay [3] is SUMOylation activity on ZMYM5 protein. Kind of assay: Bead method: SUMOylation activity on ZMYM5 with HL60 cell extracts. It counts as cell-based. The settings on record: HL60 cells, 0-500 nM, 6 h; ZMYM5 beads. On the procedure: ZMYM5 was used as a marker of SUMOylation, OTUD6B as a marker of NEDDylation, and TMEM92, BEAN and WBP2 as a marker of ubiquitinylation. […]
as §2
2.10^5 magnetic MagPlex XMap beads (low concentration) from Luminex were transferred to a low binding microtube (Eppendorf) and washed using 500 mM NaCl. […]
as §1

In assay [4] the test system is NEDDylation (OTUD6B protein). The settings on record: read-out: in vitro IC50 (NEDDylation) on OTUD6B protein; cited from earlier work.
The next assay has as its system NEDDylation of OTUD6B. Kind of assay: Bead method: NEDD8 addition on OTUD6B beads with HL60 cell extracts. In kind it is cell-based. The note with it: HL60 cells, 0-500 nM, 6 h. The procedure: FIG. 8 represents graphs evaluating Ubiquitin addition on beads coated with TMEM92 (1), BEAN1 (2), WBP2 (3) proteins, SUMO1 addition on beads coated with ZMYM5 (4) or NEDD8 addition on beads coated with OTUD6B (5). […] As control, cell extracts treated N-ethylmaleimide (NEM) are used (A).
ZMYM5 was used as a marker of SUMOylation, OTUD6B as a marker of NEDDylation, and TMEM92, BEAN and WBP2 as a marker of ubiquitinylation.
Cells grown at a 5-8.10^5/mL density were spun down (300 g) at 4° C. for 5 min and washed once with PBS. After pellet resuspension in 1 mL of PBS, they were centrifuged again (16,000 g) at 4° C. for 5 min. Pellets were resuspended and incubated at 4° C. for 30 min in a hypotonic buffer (20 mM HEPES pH 7.5, 1.5 mM MgCl2, 5 mM KCl, 1 mM DTT and 1 mg/L of aprotinine, leupeptin and pepstatin) in a volume of 25 μL per 2.10^6 cells. Cell lysis was achieved through 4 freezing/thawing cycles using liquid nitrogen and DNA was sheared owing to 10 passages through a 20-1/2 G needle. […]
as §1

Take `NS(=O)(=O)OC[C@@H]1C[C@@H](n2ccc3c(N[C@H]4CCc5ccccc54)ncnc32)CC1O` (some centres unmarked) [MLN4924]: the “UBC12 protein NEDDylation” value in assay [1] is listed as “decrease”.
What is called IC50 is the concentration at which inhibition is half-maximal. In the case of `NS(=O)(=O)OC[C@H]1C[C@@H](Nc2ccnc3cc(-c4cccc(SC(F)(F)F)c4)nn23)[C@H](O)[C@@H]1O` [MLN7243], the IC50 in the assay with SUMOylation activity was 850 nM; in assay [4] it was 28 nM. For the same molecule, in assay [2] (10 nM or more), the ubiquitination activity inhibited entry is on record as “more than 50%”. Further, the TMEM92 ubiquitination inhibition result in assay [2] (500 nM, TMEM92 beads) is “maximal”. For the same molecule, the “WBP2 and BEAN1 ubiquitination remaining” value in assay [2] (500 nM, WBP2 and BEAN1 beads) is given as “residual levels”. In addition, in assay [3], the “effect on SUMOylation activity” value was “affects SUMOylation activity, but with large amounts of inhibitor”. Moreover, the “effect on NEDDylation (OTUD6B beads)” value in the assay on NEDDylation of OTUD6B is recorded as “a decrease slightly different”.
